From ChEMBL document CHEMBL3745645, “Synthesis, in vitro antitumor activity, dihydrofolate reductase inhibition, DNA intercalation and structure-activity relationship studies of 1,3,5-triazine analogues” (Bioorg Med Chem Lett, 2016)
Activity calls are given as the source filed them. No cut-off for these calls is given here.

Experiments:
[1] = (§1) Cytotoxicity against human UACC257 cells at 10 uM after 48 hrs by SRB assay; format: functional; conditions: UACC-257, 48 h, read-out: GI
MDA-MB-468 = assay: Cytotoxicity against human MDA-MB-468 cells at 10 uM after 48 hrs by SRB assay; format: functional; conditions: for inhibition of growth at 10 µM: MDA-MB-468, 48 h, read-out: GI
HCT-15 = assay: Cytotoxicity against human HCT15 cells at 10 uM after 48 hrs by SRB assay; format: functional
[2] = Cytotoxicity against human UO31 cells at 10 uM after 48 hrs by SRB assay; format: functional; conditions: UO-31, 48 h, read-out: GI
HCC 2998 = assay: (§2) Cytotoxicity against human HCC2998 cells at 10 uM after 48 hrs by SRB assay; format: functional
SK-MEL-5 = assay: Cytotoxicity against human SK-MEL-5 cells at 10 uM after 48 hrs by SRB assay; format: functional; conditions: SK-MEL-5, 48 h, read-out: GI
[3] = Cytotoxicity against human HCT116 cells at 10 uM after 48 hrs by SRB assay; format: functional; conditions: HCT-116, 48 h, read-out: GI
T47D = assay: Cytotoxicity against human T47D cells at 10 uM after 48 hrs by SRB assay; format: functional; conditions: for inhibition of growth at 10 µM: read-out: GI
[4] = Cytotoxicity against human Caki1 cells at 10 uM after 48 hrs by SRB assay; format: functional; conditions: CAKI-1, 48 h, read-out: GI
SK-MEL-2 = assay: Cytotoxicity against human SK-MEL-2 cells at 10 uM after 48 hrs by SRB assay; format: functional
[5] = (§3) Cytotoxicity against human TK10 cells at 10 uM after 48 hrs by SRB assay; format: functional; conditions: TK-10, 48 h, read-out: GI
[6] = Cytotoxicity against human HOP62 cells at 10 uM after 48 hrs by SRB assay; format: functional; conditions: HOP-62, 48 h, read-out: GI
[7] = Cytotoxicity against human HOP92 cells at 10 uM after 48 hrs by SRB assay; format: functional; conditions: HOP-92, 48 h, read-out: GI
NCI-H460 = assay: Cytotoxicity against human NCI-H460 cells at 10 uM after 48 hrs by SRB assay; format: functional; conditions: NCI-H460, 48 h, read-out: GI
[8] = Cytotoxicity against human OVCAR8 cells at 10 uM after 48 hrs by SRB assay; format: functional; conditions: OVCAR-8, 48 h, read-out: GI
U-251 = assay: Cytotoxicity against human U251 cells at 10 uM after 48 hrs by SRB assay; format: functional; conditions: U-251, 48 h, read-out: GI
MCF7 = assay: Cytotoxicity against human MCF7 cells at 10 uM after 48 hrs by SRB assay; format: functional; conditions: MCF7, 48 h, read-out: GI
NCI-H23 = assay: Cytotoxicity against human NCI-H23 cells at 10 uM after 48 hrs by SRB assay; format: functional; conditions: NCI-H23, 48 h, read-out: GI
MDA-MB-231 = assay: Cytotoxicity against human MDA-MB-231 cells at 10 uM after 48 hrs by SRB assay; format: functional; conditions: for inhibition of growth at 10 µM: MDA-MB-231, 48 h, read-out: GI
KM12 = assay: Cytotoxicity against human KM12 cells at 10 uM after 48 hrs by SRB assay; format: functional; conditions: KM12, 48 h, read-out: GI
OVCAR-4 = assay: (§4) Cytotoxicity against human OVCAR4 cells at 10 uM after 48 hrs by SRB assay; format: functional
[9] = (§5) Cytotoxicity against human RPMI8226 cells at 10 uM after 48 hrs by SRB assay; format: functional; conditions: RPMI-8226, 48 h, read-out: GI
ACHN = assay: Cytotoxicity against human ACHN cells at 10 uM after 48 hrs by SRB assay; format: functional; conditions: read-out: GI
[10] = (§6) Cytotoxicity against human BT549 cells at 10 uM after 48 hrs by SRB assay; format: functional; conditions: BT-549, 48 h, read-out: GI
[11] = Cytotoxicity against human SNB19 cells at 10 uM after 48 hrs by SRB assay; format: functional; conditions: SNB-19, 48 h, read-out: GI
[12] = (§7) Cytotoxicity against human SF295 cells at 10 uM after 48 hrs by SRB assay; format: functional; conditions: SF-295, 48 h, read-out: GI
MDA-MB-435 = assay: Cytotoxicity against human MDA-MB-435 cells at 10 uM after 48 hrs by SRB assay; format: functional; conditions: MDA-MB-435, 48 h, read-out: GI
[13] = Cytotoxicity against human PC3 cells at 10 uM after 48 hrs by SRB assay; format: functional; conditions: PC-3, 48 h, read-out: GI
[14] = (§8) Cytotoxicity against human UACC62 cells at 10 uM after 48 hrs by SRB assay; format: functional; conditions: UACC-62, 48 h, read-out: GI
UACC-257 = assay: as §1; format: functional
SNB-75 = assay: Cytotoxicity against human SNB75 cells at 10 uM after 48 hrs by SRB assay; format: functional
HL-60(TB) = assay: Cytotoxicity against human HL-60(TB) cells at 10 uM after 48 hrs by SRB assay; format: functional
[15] = Cytotoxicity against human COLO205 cells after 48 hrs by SRB assay; format: functional; conditions: COLO 205, 48 h, pooled result: one value given for 7 cell lines, strains, targets or settings
[16] = Cytotoxicity against human IGROV1 cells after 48 hrs by SRB assay; format: functional; conditions: IGROV-1, 48 h, pooled result: one value given for 7 cell lines, strains, targets or settings
Calf thymus DNA [17] = assay: Binding affinity to calf thymus DNA by UV-vis spectrometric analysis; format: nucleic-acid assay; conditions: Bos taurus
TK-10 = assay: as §3; format: functional
Calf thymus DNA [18] = assay: Binding affinity to calf thymus DNA by fluorescence spectrophotometric analysis; format: nucleic-acid assay; conditions: Bos taurus
RXF 393 = assay: Cytotoxicity against human RXF393 cells at 10 uM after 48 hrs by SRB assay; format: functional
RPMI-8226 = assay: as §5; format: functional
SK-MEL-28 = assay: Cytotoxicity against human SK-MEL-28 cells at 10 uM after 48 hrs by SRB assay; format: functional
[19] = Cytotoxicity against human NCI-ADR-RES cells at 10 uM after 48 hrs by SRB assay; format: functional; conditions: read-out: GI
BT-549 = assay: as §6; format: functional
[20] = Cytotoxicity against human RPMI8226 cells after 48 hrs by SRB assay; format: functional; conditions: RPMI-8226, 48 h, read-out: LC50 (the source's name)
SF-295 = assay: as §7; format: functional
LOX IMVI = assay: Cytotoxicity against human LOXIMVI cells at 10 uM after 48 hrs by SRB assay; format: functional
UACC-62 = assay: as §8; format: functional
[21] = as §2; format: functional; conditions: HCC 2998, 48 h, read-out: GI
[22] = as §4; format: functional; conditions: OVCAR-4, 48 h, read-out: GI

SMILES: Cc1nc2ccc(Nc3nc(NCCN)nc(Nc4ccc(F)cc4)n3)cc2n1Cc1ccccc1
- inhibition of growth at 10 µM [1]: 15.9%
- inhibition of growth at 10 µM (MDA-MB-468): 49.5%
- growth inhibition (GI) (HCT-15): inactive
- inhibition of growth at 10 µM [2]: 13.7%
- growth inhibition (GI) (HCC 2998): inactive
- inhibition of growth at 10 µM (SK-MEL-5): 25.5%
- inhibition of growth at 10 µM [3]: 39.7%
- inhibition of growth at 10 µM (T47D): 23.2%
- inhibition of growth at 10 µM [4]: 1.79%
- inhibition of growth at 10 µM (SK-MEL-2; SK-MEL-2, 48 h, read-out: GI): 19.9%
- inhibition of growth at 10 µM [5]: 26.1%
- inhibition of growth at 10 µM [6]: 20.6%
- inhibition of growth at 10 µM [7]: 56.8%
- inhibition of growth at 10 µM (NCI-H460): 21.8%
- inhibition of growth at 10 µM [8]: 17.7%
- inhibition of growth at 10 µM (U-251): 46.5%
- inhibition of growth at 10 µM (MCF7): 39.1%
- inhibition of growth at 10 µM (NCI-H23): 10.4%
- inhibition of growth at 10 µM (MDA-MB-231): 42.9%
- inhibition of growth at 10 µM (KM12): 26.8%
- growth inhibition (GI) (OVCAR-4): inactive
- inhibition of growth at 10 µM [9]: 46.2%
- inhibition of growth at 10 µM (ACHN): 8.19%
- inhibition of growth at 10 µM [10]: 17%
- inhibition of growth at 10 µM [11]: 10.1%
- inhibition of growth at 10 µM [12]: 11.6%
- inhibition of growth at 10 µM (MDA-MB-435): 9.38%
- inhibition of growth at 10 µM [13]: 26.9%
- inhibition of growth at 10 µM [14]: 9.33%

SMILES: Cc1nc2cc(Nc3nc(Nc4ccc(F)cc4)nc(N4CCN(C)CC4)n3)ccc2n1Cc1ccccc1
- growth inhibition (GI) (UACC-257): Active
- growth inhibition (GI) (MDA-MB-468): Active
- growth inhibition (GI) (SNB-75): Active
- growth inhibition (GI) (HL-60(TB)): Active
- growth inhibition (GI) (HCT-15): Active
- growth inhibition (GI) (HCC 2998): Active
- GI50 [15]: 1.66 µM
- LC50 [15]: 7.15 µM
- TGI [15]: 3.44 µM
- inhibition of growth at 10 µM (SK-MEL-5): 29.1%
- growth inhibition (GI) (T47D): Active
- inhibition of growth at 10 µM [4]: 81.4%
- GI50 [16]: 2.16 µM
- LC50 (concentration killing 50% of cells) [16]: 15.5 µM
- TGI [16]: 5.25 µM
- Ka (Calf thymus DNA [17]): 2.92 ×10⁴ /M
- growth inhibition (GI) (SK-MEL-2): Active
- growth inhibition (GI) (TK-10): Active
- inhibition of growth at 10 µM [6]: 41.8%
- inhibition of growth at 10 µM [7]: 97.5%
- inhibition of growth at 10 µM (NCI-H460): 96.6%
- inhibition of growth at 10 µM [8]: 99.4%
- inhibition of growth at 10 µM (MCF7): 82.1%
- Ka (Calf thymus DNA [18]): 3.36 ×10⁴ /M
- growth inhibition (GI) (RXF 393): Active
- growth inhibition (GI) (MDA-MB-231): Active
- inhibition of growth at 10 µM (KM12): 83%
- growth inhibition (GI) (OVCAR-4): Active
- growth inhibition (GI) (RPMI-8226): Active
- inhibition of growth at 10 µM (ACHN): 90.3%
- growth inhibition (GI) (SK-MEL-28): Active
- inhibition of growth at 10 µM [19]: 56.9%
- growth inhibition (GI) (BT-549): Active
- inhibition of growth at 10 µM [11]: 55.8%
- CC50 [20]: 8.47 µM
- growth inhibition (GI) (SF-295): Active
- inhibition of growth at 10 µM (MDA-MB-435): 99.8%
- growth inhibition (GI) (LOX IMVI): Active
- inhibition of growth at 10 µM [13]: 80.3%
- growth inhibition (GI) (UACC-62): Active

SMILES: Cc1nc2ccc(Nc3nc(NCCN4CCOCC4)nc(Nc4ccc(F)cc4)n3)cc2n1Cc1ccccc1
- growth inhibition (GI) (UACC-257): Active
- inhibition of growth at 10 µM (MDA-MB-468): 86%
- growth inhibition (GI) (HCT-15): Active
- inhibition of growth at 10 µM [2]: 62.7%
- inhibition of growth at 10 µM [21]: 55.4%
- GI50 [15]: 2.6 µM
- LC50 [15]: 24 µM
- TGI [15]: 8.51 µM
- inhibition of growth at 10 µM (SK-MEL-5): 85.8%
- inhibition of growth at 10 µM [3]: 72.1%
- inhibition of growth at 10 µM (T47D): 47%
- inhibition of growth at 10 µM [4]: 44.4%
- GI50 [16]: 4.01 µM
- LC50 (concentration killing 50% of cells) [16]: 62.3 µM
- TGI [16]: 27.4 µM
- Ka (Calf thymus DNA [17]): 7.19 ×10⁴ /M
- inhibition of growth at 10 µM [5]: 39.4%
- inhibition of growth at 10 µM [6]: 52.2%
- inhibition of growth at 10 µM [7]: 69.7%
- inhibition of growth at 10 µM (NCI-H460): 70.6%
- inhibition of growth at 10 µM [8]: 49.9%
- inhibition of growth at 10 µM (U-251): 71.3%
- inhibition of growth at 10 µM (MCF7): 66.4%
- Ka (Calf thymus DNA [18]): 8.58 ×10⁴ /M
- inhibition of growth at 10 µM (NCI-H23): 33%
- inhibition of growth at 10 µM (MDA-MB-231): 66.7%
- inhibition of growth at 10 µM (KM12): 56.6%
- inhibition of growth at 10 µM [22]: 1.85%
- inhibition of growth at 10 µM [9]: 96.9%
- inhibition of growth at 10 µM (ACHN): 47.8%
- growth inhibition (GI) (SK-MEL-28): Active
- inhibition of growth at 10 µM [10]: 50.1%
- inhibition of growth at 10 µM [11]: 21.3%
- CC50 [20]: 55 µM
- growth inhibition (GI) (SF-295): Active
- inhibition of growth at 10 µM (MDA-MB-435): 47.8%
- inhibition of growth at 10 µM [13]: 28.5%
- growth inhibition (GI) (UACC-62): Active
